Converted amounts (≈) assume the structure as drawn. Like-named read-outs stand apart in the source and are kept apart here.
Key:
HIV-1 (IIIB) = assay: microbe, parasite or virus in culture; type: cell-based; settings: for EC50: Human immunodeficiency virus 1, IIIB, CCRF-CEM, read-out: EC50 (ug/ml) HIV-1; for HIV-1 % Protection: protection of CEM cells against virus-induced cytopathicity at the concentration in the previous column
Method in brief: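 Human T-lymphoblast CEM cells at roughly 300,000 cells per ml were infected with about 100 CCID50 of HIV-1 (IIIB). Then 100 μl of the infected suspension went into 200 μl microtiter wells holding 100 μl of 5-fold serial compound dilutions. Inhibition of syncytium formation was scored microscopically on day four post infection, and protection against virus-induced cytopathicity was recorded.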

Davis strain CMV = assay: Reduction of CMV-induced cytopathicity in HEL cells; type: cell-based, human cytomegalovirus (HCMV); settings: for Antiviral % Inhibition Davis strain CMV: estimate of percent protection at the concentration in the previous column; for EC50: read-out: Antiviral EC50 (ug/ml) Davis strain CMV
Method in brief: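 Confluent HEL cells were infected with 100 PFU/well CMV for 1–2 h, then washed and kept in MEM with 2% FCS and test compound. EC50 is the concentration cutting virus-induced cytopathicity by 50% versus untreated control at day 7. Where cytotoxicity interfered, percent protection at the stated concentration is given.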

HIV-2 (ROD) = assay: Inhibition of HIV-2 syncytium formation in CEM cells; type: cell-based; settings: for HIV-2 % Protection: protection of CEM cells against virus-induced cytopathicity at the concentration in the previous column; for EC50: Human immunodeficiency virus 2, CCRF-CEM, read-out: EC50 (ug/ml) HIV-2
Method in brief: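 Human T-lymphoblast CEM cells, suspended at roughly 300,000 cells per ml of culture medium, were infected with about 100 CCID50 of HIV-2 (ROD). Aliquots of 100 μl of infected cells were placed in 200 μl microtiter wells holding 100 μl of serial 5-fold compound dilutions, and syncytium formation was scored microscopically four days after infection.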

[1] = CEM cells, syncytium formation, day four post infection
[2] = HEL cells, virus-induced cytopathicity after seven days
[3] = Human betaherpesvirus 5, HEL, 168 h
[4] = Human betaherpesvirus 5, 168 h, HEL cells, virus-induced cytopathicity after seven days

Row | Compound | EC50 (ug/ml) HIV-1 (HIV-1 (IIIB); [1]) | Antiviral % Inhibition Davis strain CMV (Davis strain CMV; HEL cells) [%] | Antiviral EC50 (ug/ml) Davis strain CMV (Davis strain CMV; [2]) [µg/mL] | EC50 (ug/ml) HIV-2 (HIV-2 (ROD); [1]) | HIV-2 % Protection (HIV-2 (ROD)) [%] | also measured
1 | O=[N+]([O-])c1ccccc1CS(=O)(=O)c1cccc[n+]1[O-] [Compound 42] | 8.00 µg/mL (≈ 27.2 µM) | 10.0 | >5 | ≧4 ug/ml | 37.5 | –
2 | 2-(4-(2,2-dichlorocyclopropyl)phenyl)methylsulfonyl)-pyridine-N-oxide [Compound 45] | 1.75 µg/mL | – | 2.5 | 1.5 µg/mL | – | –
3 | Cc1ccccc1C(C)S(=O)(=O)c1cccc[n+]1[O-] (stereo not shown) [Compound 104] | 40.00 µg/mL (≈ 144 µM) | – | 34.5 | 2.5 µg/mL (≈ 9.01 µM) | – | –
4 | Cc1ccc(C)c(C(C)Sc2cc(C)c3ccccc3n2)c1 (stereo not shown) [Compound 162, 2-[[1-(2,5dimethylphenyl)ethyl]thio]-4-methyl-Quinoline] | – | – | – | – | 0.0 | EC50 (HIV-1 (IIIB)): > 0.8 µg/mL; HIV-1 % Protection (HIV-1 (IIIB)): 0.0%; EC50 (Davis strain CMV; [3]): 1.6 µg/mL (≈ 5.2 µM); EC50 (HIV-2 (ROD)): > 0.16 µg/mL
5 | Cc1ccc[n+]([O-])c1S(=O)(=O)C(C)c1ccccc1Cl (stereo not shown) [Compound 120] | 3.30 µg/mL (≈ 10.6 µM) | – | 12.5 | >20.00 µg/mL | 0.0 | –
6 | Cc1ccc(C)c(CSc2ccccn2)c1.Cl [Compound 157] | 6.00 µg/mL | 0.0 | >50 | ≧20 ug/ml | 37.5 | –
7 | O=S(=O)(Cc1cccc2ccccc12)c1cccc[n+]1[O-] [Compound 13] | 6.50 µg/mL (≈ 21.7 µM) | 20.0 | >5 | 6.0 µg/mL (≈ 20 µM) | – | –
8 | O=[N+]([O-])c1ccc(CS(=O)(=O)c2cccc[n+]2[O-])c(Cl)c1 [Compound 69] | 2.90 µg/mL (≈ 8.82 µM) | 20.0 | >5 | 2.9 µg/mL (≈ 8.82 µM) | – | –
9 | CC(C)c1cc(CS(=O)(=O)c2cccc[n+]2[O-])c(C(C)C)cc1Br [Compound 63] | 2.30 µg/mL (≈ 5.58 µM) | – | 3.7 | 2.5 µg/mL (≈ 6.06 µM) | – | –
10 | [O-][n+]1ccccc1[S+]([O-])Cc1cccc(C(F)(F)F)c1 (stereo not shown) [Compound 85] | 13.00 µg/mL (≈ 43.1 µM) | 20.0 | >50 | 17.0 µg/mL (≈ 56.4 µM) | – | –
11 | Cc1ccc[n+]([O-])c1S(=O)(=O)Cc1ccccc1Cl [Compound 117] | 3.40 µg/mL (≈ 11.4 µM) | – | 12.0 | >4.0 µg/mL | 0.0 | –
12 | COc1ccc(C=C(C#N)Sc2cccc[n+]2[O-])cc1 [Compound 159] | >20 µg/mL | – | 10.0 | >20 µg/mL | 25.0 | HIV-1 % Protection (HIV-1 (IIIB)): 0.0%
13 | O=[N+]([O-])c1ccc[n+]([O-])c1SCc1ccccc1 [Compound 146] | 2.30 µg/mL (≈ 8.77 µM) | – | 40.0 | ≧20 ug/ml | 37.5 | –
14 | Cc1cc(CS(=O)(=O)c2cccc[n+]2[O-])c(C)cc1CS(=O)(=O)c1cccc[n+]1[O-] [Compound 25] | 10.00 µg/mL (≈ 22.3 µM) | – | 16.0 | ≧20 ug/ml | 37.5 | –
15 | COc1ccc(CS(=O)(=O)c2cccc[n+]2[O-])cc1 [Compound 19] | ≧20 ug/ml | – | 20.0 | 14.0 µg/mL (≈ 50.1 µM) | – | HIV-1 % Protection (HIV-1 (IIIB)): 37.5%
16 | O=S(=O)(Cc1ccc(Cl)cc1Cl)c1cccc[n+]1[O-] [Compound 18] | 2.40 µg/mL (≈ 7.54 µM) | – | 5.0 | 2.5 µg/mL (≈ 7.86 µM) | – | –
17 | Cc1cc(C)c(C[S+]([O-])c2cccc[n+]2[O-])c(C)c1 (stereo not shown) [Compound 88, 2-(2,4,6-trimethylbenzylsulfinyl)-pyridine-N-oxide] | – | – | – | – | – | EC50 (HIV-1 (IIIB); [1]): 1.5 µg/mL (≈ 5.45 µM); EC50 (Davis strain CMV; [4]): 25 µg/mL (≈ 90.8 µM); EC50 (HIV-2 (ROD); [1]): 1.5 µg/mL (≈ 5.45 µM)
18 | O=S(=O)(Cc1c(Cl)c(Cl)c(Cl)c(Cl)c1Cl)c1cccc[n+]1[O-] [Compound 32, 2-(Pentachlorobenzylsulfonyl)-pyridine-N-oxide] | – | – | – | – | – | EC50 (HIV-1 (IIIB); [1]): 0.63 µg/mL (≈ 1.49 µM); EC50 (Davis strain CMV; [3]): 14 µg/mL (≈ 33.2 µM); EC50 (HIV-2 (ROD)): 1 µg/mL (≈ 2.37 µM)
19 | Cc1ccc(C)c(CS(=O)(=O)c2cccc(C)[n+]2[O-])c1 [Compound 72] | 4.00 µg/mL (≈ 13.7 µM) | 0.0 | >50 | >100.0 µg/mL | 0.0 | –
20 | [O-][n+]1ccccc1SCc1ccccc1 [Compound 4] | ≧100 ug/ml | 0.0 | >50 | >100 µg/mL | 0.0 | HIV-1 % Protection (HIV-1 (IIIB)): 37.5%
21 | COc1ccc(CS(=O)(=O)c2cccc[n+]2[O-])cc1OC [Compound 46] | ≧20 ug/ml | 40.0 | >50 | 15.0 µg/mL (≈ 48.5 µM) | – | HIV-1 % Protection (HIV-1 (IIIB)): 37.5%
22 | O=S(=O)(Cc1ccccc1I)c1cccc[n+]1[O-] [Compound 44] | 5.30 µg/mL (≈ 14.1 µM) | 20.0 | >20 | 3.4 µg/mL (≈ 9.06 µM) | – | –
23 | Cc1ccc(CS(=O)(=O)c2cccc[n+]2[O-])cc1 [Compound 11] | 13.00 µg/mL (≈ 49.4 µM) | – | 29.0 | 10.0 µg/mL (≈ 38 µM) | – | –
24 | Cc1ccc(C)c(C(C)S(=O)(=O)c2cc(C)cc[n+]2[O-])c1 (stereo not shown) [Compound 108, 2-[1-(2,5-Dimethylphenyl)ethylsulfonyl]-4-methylpyridine N-oxide] | – | – | – | – | 37.5 | EC50 (HIV-1 (IIIB); [1]): 0.75 µg/mL (≈ 2.46 µM); EC50 (Davis strain CMV; [4]): 38 µg/mL (≈ 124 µM); EC50 (HIV-2 (ROD); [1]): ≥ 20 µg/mL
